Source: DBAASP
≈ marks a conversion by molar mass, not a printed value. Blank lines part the entries; values can stand above or below the compound they belong to.

Key:
Assay in all cases: ≥ marks a high value that may be exact or a test limit, other limits are often not marked, values filed in µg/mL are converted to µM
[1] = tested on: Bacillus subtilis PCI 219
[2] = tested on: Escherichia coli NIHJ JC-2
[3] = tested on: Pseudomonas aeruginosa U-31
[4] = tested on: Staphylococcus aureus FDA 209P
Acinetobacter baumannii = tested on: Acinetobacter baumannii
[5] = tested on: Enterobacter cloacae 2524
[6] = tested on: Enterobacter cloacae 6780
Escherichia coli 170 = tested on: Escherichia coli 170
[7] = tested on: Escherichia coli ATCC 25922
[8] = tested on: Klebsiella pneumoniae 913
[9] = tested on: Pseudomonas aeruginosa 4677
Carnobacterium mobile = tested on: Carnobacterium mobile
Fusarium oxysporum = tested on: Fusarium oxysporum
[10] = tested on: Bacillus subtilis CGMCC 1.1627
[11] = tested on: Enterococcus faecalis CGMCC 1.125
[12] = tested on: Escherichia coli CGMCC 1.1580
Escherichia coli JM109 = tested on: Escherichia coli JM109
[13] = tested on: Lactiplantibacillus plantarum CGMCC 1.11
[14] = tested on: Lactiplantibacillus plantarum CGMCC 1.124
[15] = tested on: Lactiplantibacillus plantarum CGMCC 1.511
[16] = tested on: Lactiplantibacillus plantarum CGMCC 1.551
[17] = tested on: Lactiplantibacillus plantarum CGMCC 1.556
[18] = tested on: Lactococcus lactis ATCC 15577
[19] = tested on: Listeria monocytogenes ATCC 7648
[20] = tested on: Micrococcus luteus CGMCC 1.193
[21] = tested on: Pseudomonas aeruginosa CGMCC 1.647
[22] = tested on: Pseudomonas putida CGMCC 1.645
[23] = tested on: Salmonella sp. CGMCC 1.1552
[24] = tested on: Shigella dysenteriae ATCC 9753
[25] = tested on: Shigella flexneri CGMCC 1.1868
[26] = tested on: Staphylococcus aureus ATCC 6538P
[27] = tested on: Staphylococcus aureus CGMCC 1.128
[28] = tested on: Staphylococcus aureus CGMCC 1.2386
[29] = tested on: Staphylococcus aureus CGMCC 1.879
[30] = tested on: Enterobacter cloacae 6266
Escherichia coli 5580 = tested on: Escherichia coli 5580
[31] = tested on: Klebsiella pneumoniae 1625
[32] = tested on: Klebsiella pneumoniae 68228
[33] = tested on: Pseudomonas aeruginosa 3599
[34] = tested on: Pseudomonas aeruginosa 5106
Salmonella typhimurium = tested on: Salmonella typhimurium
[35] = tested on: Streptococcus pneumoniae ATCC 49619

MIC [1]: ≥ 43.6 µM
MIC [2]: ≥ 43.6 µM
MIC [3]: ≥ 43.6 µM
MIC [4]: ≥ 43.6 µM
SMILES: CC(C)C[C@H](NC(=O)[C@H](CCCCN)NC(=O)[C@H](CCCCN)NC(=O)[C@H](CC(C)C)NC(=O)[C@H](CC(C)C)NC(=O)[C@H](CCCCN)NC(=O)[C@H](CCCCN)NC(=O)[C@H](Cc1c[nH]c2ccccc12)NC(=O)[C@H](CCCCN)NC(=O)[C@H](CCCCN)NC(=O)[C@H](CC(C)C)NC(=O)[C@H](CC(C)C)NC(=O)[C@H](CCCCN)NC(=O)[C@H](CCCCN)NC(=O)[C@H](CC(C)C)NC(=O)[C@H](CCCCN)NC(=O)[C@@H](N)CCCCN)C(=O)N[C@@H](CCCCN)C(=O)O [KKLKKLLKKWKKLLKKLK]

MIC (Acinetobacter baumannii): ≥ 50 µM
MIC [5]: 25 µM (≈ 47.4 µg/mL)
MIC [6]: ≥ 50 µM
MIC (Escherichia coli 170): ≥ 50 µM
MIC [7]: > 50 µM
MIC [8]: ≥ 50 µM
MIC [9]: ≥ 50 µM
SMILES: CC(C)C[C@H](NC(=O)[C@H](CCCCN)NC(=O)[C@H](CCC(N)=O)NC(=O)[C@@H](NC(=O)[C@@H](NC(=O)[C@H](CC(N)=O)NC(=O)[C@H](C)NC(=O)[C@@H](NC(=O)[C@@H](N)CCCCN)C(C)C)[C@@H](C)O)C(C)C)C(=O)N[C@@H](CCCCN)C(=O)N[C@@H](CCCN=C(N)N)C(=O)N[C@@H](CCCCN)C(=O)N[C@@H](C)C(=O)N[C@@H](CCCCN)C(=O)N[C@@H](CC(N)=O)C(=O)N[C@@H](C)C(=O)N[C@H](C(=O)O)C(C)C [KVANTVQKLKRKAKNAV]

MIC (Carnobacterium mobile): 0.0025 µM (≈ 0.00538 µg/mL)
MIC (Fusarium oxysporum): 0.1 µM (≈ 0.215 µg/mL)
SMILES: CSCC[C@H](N)C(=O)N[C@@H](C)C(=O)N[C@@H](CO)C(=O)N[C@@H](CCCN=C(N)N)C(=O)N[C@@H](C)C(=O)N[C@@H](C)C(=O)N[C@@H](CCCN=C(N)N)C(=O)N[C@@H](CC(C)C)C(=O)N[C@@H](C)C(=O)N[C@@H](C)C(=O)N[C@@H](CCCN=C(N)N)C(=O)N[C@@H](CC(C)C)C(=O)N[C@@H](C)C(=O)N[C@@H](CCCN=C(N)N)C(=O)N[C@@H](CC(C)C)C(=O)N[C@@H](C)C(=O)N[C@@H](CC(C)C)C(=O)N[C@@H](CCCN=C(N)N)C(=O)N[C@@H](C)C(=O)N[C@@H](CC(C)C)C(=O)O [MASRAARLAARLARLALRAL]

MIC [10]: 0.121 µM (≈ 0.318 µg/mL)
MIC [11]: 0.146 µM (≈ 0.384 µg/mL)
MIC [12]: 0.235 µM (≈ 0.618 µg/mL)
MIC (Escherichia coli JM109): 0.135 µM (≈ 0.355 µg/mL)
MIC [18]: 1.23 µM (≈ 3.22 µg/mL)
MIC [19]: 0.112 µM (≈ 0.295 µg/mL)
MIC [20]: 0.153 µM (≈ 0.403 µg/mL)
MIC [21]: 0.144 µM (≈ 0.379 µg/mL)
MIC [22]: 0.075 µM (≈ 0.197 µg/mL)
MIC [23]: 0.136 µM (≈ 0.358 µg/mL)
MIC [24]: 0.185 µM (≈ 0.487 µg/mL)
MIC [25]: 0.135 µM (≈ 0.355 µg/mL)
MIC [26]: 0.178 µM (≈ 0.468 µg/mL)
MIC [27]: 0.218 µM (≈ 0.574 µg/mL)
MIC [28]: 0.21 µM (≈ 0.553 µg/mL)
MIC [29]: 0.132 µM (≈ 0.347 µg/mL)
SMILES: CC[C@H](C)[C@H](NC(=O)[C@H](CC(C)C)NC(=O)[C@H](Cc1ccccc1)NC(=O)[C@H](CCC(N)=O)NC(=O)[C@H](CCC(N)=O)NC(=O)[C@H](CCCCN)NC(=O)[C@@H](NC(=O)[C@@H](N)CCCCN)[C@@H](C)O)C(=O)N[C@@H](CCCCN)C(=O)N[C@@H](C)C(=O)N[C@@H](CCC(N)=O)C(=O)N[C@H](C(=O)N[C@@H](CCC(N)=O)C(=O)N[C@@H](CC(C)C)C(=O)N[C@@H](Cc1ccccc1)C(=O)N[C@@H](CCCCN)C(=O)N[C@H](C(=O)N[C@@H](Cc1ccccc1)C(=O)NCC(=O)N[C@@H](Cc1ccc(O)cc1)C(=O)N[C@H](C(=O)N[C@@H](CC(C)C)C(=O)O)[C@@H](C)O)C(C)C)[C@@H](C)O [KTKQQFLIKAQTQLFKVFGYTL]
MIC [13]: 0.885 µM (≈ 2.33 µg/mL)
MIC [14]: 0.242 µM (≈ 0.637 µg/mL)
MIC [15]: 1.35 µM (≈ 3.56 µg/mL)
MIC [16]: 0.722 µM (≈ 1.9 µg/mL)
MIC [17]: 0.682 µM (≈ 1.79 µg/mL)

MIC (Acinetobacter baumannii): 3.1 µM (≈ 9.55 µg/mL)
MIC [5]: 6.2 µM (≈ 19.1 µg/mL)
MIC [30]: 3.1 µM (≈ 9.55 µg/mL)
MIC (Escherichia coli 170): 3.1 µM (≈ 9.55 µg/mL)
MIC (Escherichia coli 5580): 1.6 µM (≈ 4.93 µg/mL)
MIC [7]: 1.6 µM (≈ 4.93 µg/mL)
MIC [31]: 1.6 µM (≈ 4.93 µg/mL)
MIC [32]: 6.2 µM (≈ 19.1 µg/mL)
MIC [8]: 3.1 µM (≈ 9.55 µg/mL)
MIC [33]: ≥ 50 µM
MIC [9]: 25 µM (≈ 77 µg/mL)
MIC [34]: 12 µM (≈ 37 µg/mL)
MIC (Salmonella typhimurium): 3.15 µM (≈ 9.7 µg/mL)
MIC [35]: 25 µM (≈ 77 µg/mL)
SMILES: CC[C@H](C)[C@H](NC(=O)CN)C(=O)N[C@@H](CC(C)C)C(=O)N[C@@H](CCCCN)C(=O)N[C@H](C(=O)N[C@H](C(=O)N[C@@H](CCCCN)C(=O)N[C@@H](CO)C(=O)N[C@H](C(=O)N[C@@H](C)C(=O)N[C@@H](CO)C(=O)N[C@@H](CCCCN)C(=O)N[C@H](C(=O)N[C@@H](C)C(=O)N[C@@H](CC(N)=O)C(=O)N[C@H](C(=O)N[C@H](C(=O)N[C@@H](CCC(N)=O)C(=O)N[C@@H](CCCCN)C(=O)N[C@@H](CC(C)C)C(=O)N[C@@H](CCCCN)C(=O)N[C@@H](CCCN=C(N)N)C(=O)N[C@@H](CCCCN)C(=O)N[C@@H](C)C(=O)N[C@@H](CCCCN)C(=O)N[C@@H](CC(N)=O)C(=O)N[C@@H](C)C(=O)N[C@H](C(=O)N[C@@H](C)C(=O)O)C(C)C)C(C)C)[C@@H](C)O)C(C)C)[C@@H](C)CC)[C@@H](C)CC)[C@@H](C)O [GILKTIKSIASKVANTVQKLKRKAKNAVA]
